# In the supplement of paper PMC10307832:
# Key:
# Experiment in all cases: relative viability (nuclei count vs DMSO), 5 days (fraction); higher = more cells survive
# [1] = compound: CCC1=CN=CN=C1N2CCN(CC2)CC3=NC4=C(N3)C=C(C=C4)C(F)(F)F + Cc1nc(NC(=O)N2CCC[C@H]2C(N)=O)sc1-c1ccnc(C(C)(C)C(F)(F)F)c1 [Alpelisib] (partner 2 µM)
# Procedure, shortened: (§1)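 Cells from lung cancer lines were seeded into 1536-well plates and, one day later, dosed by pin tool. Treatments were either a single drug or a fixed dose of an anchor drug with five library-drug doses (not always all listed) in √10 steps. After 5 days, nuclei were stained in a one-step fixation (final 0.05% Triton X-100, 1% formaldehyde, 1 ug/ml Hoechst) and counted on 4× images, and relative viability is the treated-to-vehicle nuclei ratio, as the median of duplicate plates.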
# [2] = compound: CCn1c(-c2nonc2N)nc2cnc(Oc3cccc(NC(=O)c4ccc(OCCN5CCOCC5)cc4)c3)cc21 + CC(=O)Nc1cccc(-n2c(=O)n(C3CC3)c(=O)c3c(Nc4ccc(I)cc4F)n(C)c(=O)c(C)c32)c1 [Trametinib] (partner 0.02 µM)
# Procedure, shortened: as §1
# [3] = compound: CCn1c(-c2nonc2N)nc2cnc(Oc3cccc(NC(=O)c4ccc(OCCN5CCOCC5)cc4)c3)cc21 + O=C(c1cc(Cc2n[nH]c(=O)c3ccccc23)ccc1F)N1CCN(C(=O)C2CC2)CC1 [Olaparib] (partner 8 µM)
# Procedure, shortened: as §1
# Mirin + Lapatinib = compound: N=C1NC(=O)/C(=C/c2ccc(O)cc2)S1 [Mirin] + CS(=O)(=O)CCNCc1ccc(-c2ccc3ncnc(Nc4ccc(OCc5cccc(F)c5)c(Cl)c4)c3c2)o1 [Lapatinib] (partner 2 µM)
# Procedure, shortened: as §1
Cell Line,relative viability ([1]; first compound 0.04 µM),relative viability ([1]; first compound 0.1265 µM),relative viability ([1]; first compound 0.4 µM),relative viability ([1]; first compound 1.265 µM),relative viability ([1]; first compound 4 µM),relative viability ([2]; first compound 0.04 µM),relative viability ([2]; first compound 0.1265 µM),relative viability ([2]; first compound 0.4 µM),relative viability ([2]; first compound 1.265 µM),relative viability ([2]; first compound 4 µM),relative viability ([3]; first compound 0.04 µM),relative viability ([3]; first compound 0.1265 µM),relative viability ([3]; first compound 0.4 µM),relative viability ([3]; first compound 4 µM),relative viability (Mirin + Lapatinib; first compound 0.25 µM),relative viability (Mirin + Lapatinib; first compound 0.7906 µM),relative viability (Mirin + Lapatinib; first compound 2.5 µM),relative viability (Mirin + Lapatinib; first compound 25 µM),relative viability ([3]; first compound 1.265 µM),relative viability (Mirin + Lapatinib; first compound 7.906 µM)
HOP-62,1.16,0.962,0.815,1.01,1.13,0.381,0.361,0.371,0.301,0.314,0.679,0.379,0.372,0.351,1.05,1.16,1.01,1.23,–,–
LC-2-ad,0.715,0.834,0.824,0.915,0.779,0.991,0.952,0.983,0.712,0.623,0.753,0.677,0.716,0.334,0.967,1.03,0.947,0.98,0.438,0.783
LCLC-97TM1,0.239,0.266,0.246,0.314,0.192,0.257,0.192,–,0.197,0.19,0.518,0.381,–,0.423,1.04,0.594,0.857,1,0.387,0.867
LK-2,1.14,1.09,0.991,0.775,1.06,0.753,0.969,0.65,0.666,0.899,1.13,0.745,0.367,0.555,0.787,–,0.879,0.496,0.326,0.593
LOU-NH91,0.621,0.689,0.712,0.63,0.72,0.751,0.697,0.617,0.543,0.487,0.919,0.756,0.665,0.534,0.786,–,0.782,0.702,0.494,0.774
LU99A,0.524,0.527,0.53,0.568,0.585,0.569,0.595,0.567,0.584,0.497,0.313,0.299,0.262,0.244,1.05,0.79,0.888,0.749,0.256,0.809
LXF-289,1.01,1.01,0.972,0.996,0.974,0.761,0.75,0.685,0.667,0.754,1.07,1.22,1.01,0.984,0.906,1.01,0.91,1.04,1.12,1.04
NCI-H23,0.807,0.652,0.706,0.599,0.781,0.413,0.405,0.407,0.281,0.305,0.33,0.3,0.359,0.177,1.17,–,1.13,0.742,0.253,0.936
NCI-H322M,0.741,0.892,0.749,0.705,0.748,0.631,0.604,0.522,0.487,0.57,1.14,1.01,0.935,0.702,0.569,0.831,0.929,0.705,0.661,0.683
NCI-H358,0.892,0.836,0.833,0.853,0.747,0.14,0.161,0.115,0.129,0.113,0.709,0.612,0.792,0.521,0.466,0.514,0.489,0.379,0.572,0.52
NCI-H460,0.445,0.559,0.385,0.398,0.583,0.132,0.203,0.0433,0.0407,0.0579,0.545,0.383,0.458,0.138,1.05,1.01,1.06,0.631,0.085,0.836
NCI-H520,1.08,0.883,0.838,0.765,1.01,0.734,0.738,0.469,0.406,0.311,0.432,0.347,0.264,0.237,0.97,0.605,0.857,0.391,0.237,0.551
NCI-H596,0.573,0.431,0.443,0.459,0.508,0.797,0.804,0.825,0.555,0.657,0.622,0.666,0.739,0.585,1.1,1.07,1.04,0.983,0.739,1.1
NCI-H647,1.16,1.05,–,1.02,1.05,0.494,0.38,0.261,0.303,0.286,0.718,0.512,0.428,0.302,1.31,1.09,1.07,0.427,0.348,1.1
NCI-H650,1.02,1.1,0.968,0.997,0.965,1.11,0.826,0.597,0.587,0.588,0.374,0.377,0.279,0.236,0.943,–,0.902,1.02,0.259,–
NCI-H661,0.561,0.512,0.506,–,0.57,0.469,0.498,0.355,0.451,0.346,0.693,0.757,0.749,0.489,0.407,0.567,0.539,0.392,0.579,0.442
NCI-H727,0.684,0.483,0.463,–,0.544,–,0.392,0.386,0.461,0.423,–,0.801,0.657,0.59,0.995,0.714,0.96,0.851,0.487,0.672

Cell Line,relative viability ([1]; first compound 0.04 µM),relative viability ([1]; first compound 0.1265 µM),relative viability ([1]; first compound 0.4 µM),relative viability ([1]; first compound 1.265 µM),relative viability ([1]; first compound 4 µM),relative viability ([2]; first compound 0.04 µM),relative viability ([2]; first compound 0.1265 µM),relative viability ([2]; first compound 0.4 µM),relative viability ([2]; first compound 1.265 µM),relative viability ([2]; first compound 4 µM),relative viability ([3]; first compound 0.04 µM),relative viability ([3]; first compound 0.1265 µM),relative viability ([3]; first compound 0.4 µM),relative viability ([3]; first compound 4 µM),relative viability (Mirin + Lapatinib; first compound 0.25 µM),relative viability (Mirin + Lapatinib; first compound 0.7906 µM),relative viability (Mirin + Lapatinib; first compound 2.5 µM),relative viability (Mirin + Lapatinib; first compound 25 µM),relative viability ([3]; first compound 1.265 µM),relative viability (Mirin + Lapatinib; first compound 7.906 µM)
NCI-H838,1.1,0.963,0.971,0.994,0.986,0.347,0.231,0.213,0.17,0.188,0.405,0.347,0.383,0.222,1.15,0.454,1.07,0.658,0.221,0.898
NCI-H1355,0.815,0.74,0.807,0.732,0.797,0.322,0.433,0.434,0.392,0.398,0.731,0.832,0.739,0.61,1.01,0.961,1.01,1.11,0.649,1.1
NCI-H1395,1.04,1.1,1.05,0.951,1.04,1.18,0.986,0.849,0.622,0.717,0.384,0.41,0.401,0.352,0.947,–,1.08,0.853,0.374,0.934
NCI-H1437,1,0.93,0.831,0.795,0.855,0.599,0.556,0.517,0.435,0.403,0.696,0.624,0.591,0.49,0.912,0.741,0.776,0.394,0.485,0.762
NCI-H1651,1.01,0.961,0.876,0.818,0.907,0.925,0.891,0.828,0.623,0.81,0.18,0.182,0.195,0.169,0.882,0.832,0.938,0.824,0.17,0.711
NCI-H1666,0.877,0.913,0.903,0.851,0.95,0.95,1.09,0.851,0.582,0.528,0.718,0.863,0.702,0.551,0.683,0.381,0.638,0.443,0.717,0.444
NCI-H1734,0.686,0.754,0.795,–,0.676,0.676,0.729,0.69,0.603,0.467,0.654,0.583,0.557,0.328,1.02,0.906,1.06,0.905,0.442,0.941
NCI-H1755,0.881,0.913,0.923,0.862,0.895,0.832,0.772,0.71,0.749,0.734,0.89,0.891,0.864,0.833,1.03,0.951,1.05,1.18,0.851,1.11
NCI-H1792,0.696,0.685,0.641,0.503,0.65,0.425,0.47,0.401,0.354,0.302,0.449,0.345,0.338,0.37,0.891,0.814,0.97,0.942,0.244,0.829
NCI-H1793,0.618,0.553,0.557,–,0.637,0.356,0.476,0.425,0.401,0.327,0.824,0.994,0.756,0.363,0.899,0.413,0.914,0.652,0.52,0.881
NCI-H1915,1.1,1.03,1.06,0.957,1.03,0.267,0.31,0.309,0.227,0.221,0.252,0.265,0.251,0.167,0.95,–,0.997,0.826,0.185,0.853
NCI-H1944,0.993,0.827,0.778,–,0.802,0.409,0.365,0.441,0.467,0.359,0.42,0.419,0.358,0.327,0.904,–,0.774,0.486,0.386,0.747
NCI-H1975,0.641,0.633,0.605,0.61,0.527,0.261,0.256,0.219,0.154,0.176,0.9,0.772,0.623,0.271,1.12,0.785,0.883,0.757,0.389,1.02
NCI-H1993,0.593,0.623,0.743,0.77,0.727,0.441,0.427,0.464,0.439,0.509,1.06,1,1.06,0.849,0.856,0.784,0.887,0.81,1.13,0.976
NCI-H2009,1.24,1.12,1.12,1.19,1.14,0.199,0.192,0.161,0.16,0.142,0.605,0.566,0.549,0.334,0.883,0.469,1.02,0.993,0.486,0.847
NCI-H2023,0.593,0.576,0.616,0.602,0.571,0.708,0.652,0.474,0.317,0.237,0.472,0.438,0.408,0.245,1.08,0.301,0.752,0.585,0.264,0.876
